Several values for one entry are separate records, joined by “and”; a condition that tells them apart may be missing. Identical values can stand only once.
What was measured:
[1] = target: T1, SERT (Homo sapiens, UniProt P31645);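 note: uptake into HEK293 cells stably expressing human SERT over 2 min, enantiomers measured in cell lysate by chiral HPLC-MS/MS, normalized to total protein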
[2] = target: T1, SERT; assay: in vitro
[3] = tested on: OCT2 wild-type versus A270S variant; assay: in vitro; conditions: human, Transporter selectivity, OCT2 wild-type versus A270S, 100 μM racemic substance, two minutes; given as for WT
[4] = target: NET (Homo sapiens, UniProt P23975); assay: Stereoselective uptake into NET-overexpressing HEK293 cells;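 note: intracellular enantiomers quantified in cell lysates by chiral HPLC-MS/MS after a 2 min substrate incubation, with uptake normalized to total cellular protein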
Chain of NET (P23975 whole entry): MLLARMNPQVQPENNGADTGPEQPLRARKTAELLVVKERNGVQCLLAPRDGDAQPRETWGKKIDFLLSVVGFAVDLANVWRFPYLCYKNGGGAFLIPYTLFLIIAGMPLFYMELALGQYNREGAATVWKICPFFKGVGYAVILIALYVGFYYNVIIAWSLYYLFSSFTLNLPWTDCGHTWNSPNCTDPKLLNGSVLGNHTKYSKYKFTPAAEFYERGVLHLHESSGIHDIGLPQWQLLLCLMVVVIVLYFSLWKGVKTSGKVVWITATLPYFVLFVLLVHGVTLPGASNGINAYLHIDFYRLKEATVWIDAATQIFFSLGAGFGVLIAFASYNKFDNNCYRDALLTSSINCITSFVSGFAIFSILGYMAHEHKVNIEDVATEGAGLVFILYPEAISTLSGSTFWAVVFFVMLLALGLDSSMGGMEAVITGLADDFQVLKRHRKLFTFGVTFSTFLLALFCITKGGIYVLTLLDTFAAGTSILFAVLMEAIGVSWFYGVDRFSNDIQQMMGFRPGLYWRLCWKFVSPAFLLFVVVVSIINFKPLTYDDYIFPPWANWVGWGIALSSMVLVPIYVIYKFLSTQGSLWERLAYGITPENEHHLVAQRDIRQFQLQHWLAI
Experimental: (§1) All transport experiments were carried out in HEK293 cells stably overexpressing human MATs or OCTs. […] All cells were regularly cultivated in DMEM supplemented with 10% (v/v) FCS, penicillin (100 U/mL) and streptomycin (100 μg/mL)and kept in culture for no longer than 30 passages.
(§2) For the uptake experiments, 300,000 cells were plated in poly-D-lysine precoated 24-well plates 48 h ahead of the transport experiment. On the day of experiment, cells were initially washed once with 37 °C pre-warmed HBSS+ (Hanks buffered salt solution supplemented with 10 mM HEPES) and subsequently incubated with the substrates dissolved in pre-warmed HBSS+ for exactly two minutes. Incubation was stopped by adding ice-cold HBSS+ followed by two washing steps. After this, cells were lysed with 80% acetonitrile containing 10 ng/mL milnacipran as internal standard for high-performance liquid chromatography coupled to tandem mass spectrometry (HPLC-MS/MS) analysis. For every experiment, two additional wells per cell line were lysed using RIPA buffer for protein quantification. Total protein was quantified using the bicinchoninic acid assay [42]. This was later used for normalization of the uptake data.
(§3) Intracellularly accumulated test substances were quantified by HPLC-MS/MS analysis using a Shimadzu Nexera HPLC system with a SIL-30AC autosampler, a CTO-20AC column oven, a LC-30AD pump, and a CBM-20A controller (Shimadzu, Kyoto, Japan). Stereoselective chromatography was carried out on a [sequence] CBH HPLC column (100 × 3 mm inner dimension with 5 μM particle size; Sigma-Aldrich, Darmstadt, Germany) with a corresponding 10 × 3 mm guard column. Reversed phased chromatography was carried out using an ammonium acetate (NH4Ac) buffered aqueous mobile phase with isopropyl alcohol (IPA) as organic solvent. […] The order of elution of the enantiomers was obtained from available reference literature [43] or by applying enantiopure reference compounds to the chiral HPLC. […] Given the structural similarity of the investigated substances and the fact that separation was performed on the same column with almost identical mobile phases, we assume that this order of elution for our compound set is always the (R)- before the (S)-enantiomer.
(§4) Detection was performed with an API 4000 tandem mass spectrometer (AB SCIEX, Darmstadt, Germany) operating in multiple-reaction-monitoring mode. Quantification was performed using the Analyst 1.6.2 software (AB SCIEX, Darmstadt, Germany) and quantified by comparison to standard curves with known concentrations.
(§5) All uptake data were normalized to protein content to account for variation in the number of seeded sells. Transporter-mediated net uptake was calculated by subtracting uptake into empty vector-transfected control cells from uptake into transporter-transfected cells. Kinetic parameters were then determined after non-linear regression following the Michaelis–Menten equation (v = vmax × [S]/(Km + [S])) using GraphPad Prism (Version 5.01 for Windows, GraphPad Software, La Jolla, CA, USA). Vmax refers to the maximum transport velocity and Km is defined as the substance concentration required to reach half of vmax. The intrinsic clearance Clint was calculated as the quotient of vmax over Km.

[5] = target: DAT (Homo sapiens, UniProt Q01959); assay: Stereoselective uptake into DAT-overexpressing HEK293 cells;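 note: intracellular accumulation measured by chiral HPLC-MS/MS in stably transfected HEK293 cells, normalized to total protein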
Experimental: as §1, §2, §3, §4, §5

[6] = target: T1, SERT; assay: Stereoselective uptake into SERT-overexpressing HEK293 cells;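 note: uptake into HEK293 cells stably expressing human SERT over 2 min, enantiomers measured in cell lysate by chiral HPLC-MS/MS, normalized to total protein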
[7] = target: T2, OCT1 (Homo sapiens, UniProt O15245); assay: Stereoselective uptake into OCT1-overexpressing HEK293 cells; conditions: for selectivity ratio at 2 min: human;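 for all read-outs here: enantiomers quantified inside cells by chiral HPLC-MS/MS, uptake normalized to total protein from bicinchoninic acid assay, substrates applied in HBSS+ buffer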
T2 sequence (O15245 1-554): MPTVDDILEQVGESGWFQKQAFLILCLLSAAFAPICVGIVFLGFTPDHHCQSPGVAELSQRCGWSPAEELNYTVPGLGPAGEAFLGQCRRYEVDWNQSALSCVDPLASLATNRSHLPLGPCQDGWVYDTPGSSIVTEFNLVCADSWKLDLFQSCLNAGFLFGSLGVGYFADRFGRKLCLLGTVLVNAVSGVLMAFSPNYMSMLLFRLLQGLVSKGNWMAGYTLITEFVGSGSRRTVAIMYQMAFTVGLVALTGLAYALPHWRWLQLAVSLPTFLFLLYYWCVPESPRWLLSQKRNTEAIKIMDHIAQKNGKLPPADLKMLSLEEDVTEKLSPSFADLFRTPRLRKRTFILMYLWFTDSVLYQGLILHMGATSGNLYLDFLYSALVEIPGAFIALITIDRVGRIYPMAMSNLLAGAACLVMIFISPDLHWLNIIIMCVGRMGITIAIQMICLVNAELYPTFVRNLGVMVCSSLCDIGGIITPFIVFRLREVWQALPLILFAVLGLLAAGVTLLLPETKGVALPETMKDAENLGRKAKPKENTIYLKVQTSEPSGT
Experimental: as §1, §2, §3, §4, §5

[8] = target: T3, OCT3 (Homo sapiens, UniProt O75751); assay: Stereoselective uptake into OCT3-overexpressing HEK293 cells;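 note: intracellular accumulation in HEK293 cells measured by chiral HPLC-MS/MS after a 2 min substrate exposure at 37 °C, uptake normalized to total protein (bicinchoninic acid assay)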
T3 sequence (O75751 1-556): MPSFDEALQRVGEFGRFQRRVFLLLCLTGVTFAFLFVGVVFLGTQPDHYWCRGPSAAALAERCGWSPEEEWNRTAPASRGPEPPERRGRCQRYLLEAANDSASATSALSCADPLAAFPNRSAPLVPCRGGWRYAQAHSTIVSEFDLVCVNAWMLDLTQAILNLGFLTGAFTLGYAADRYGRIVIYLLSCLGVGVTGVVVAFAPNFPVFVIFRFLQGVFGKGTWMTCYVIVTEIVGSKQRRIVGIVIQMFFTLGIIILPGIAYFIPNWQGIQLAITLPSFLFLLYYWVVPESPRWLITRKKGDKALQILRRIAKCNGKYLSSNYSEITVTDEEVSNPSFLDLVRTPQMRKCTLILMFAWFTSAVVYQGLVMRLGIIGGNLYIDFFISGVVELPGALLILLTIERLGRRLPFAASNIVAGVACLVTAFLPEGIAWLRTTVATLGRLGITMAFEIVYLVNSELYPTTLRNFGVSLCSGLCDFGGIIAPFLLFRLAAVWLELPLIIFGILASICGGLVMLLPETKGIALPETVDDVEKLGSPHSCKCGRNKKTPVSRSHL
Experimental: as §1, §2, §3, §4, §5

[9] = target: T4, OCT2 (Homo sapiens, UniProt O15244); assay: Stereoselective uptake into OCT2 (wild-type)-overexpressing HEK293 cells; conditions: OCT2; for selectivity ratio at 2 min: human, ratio between enantiomers
T4 sequence (O15244 1-555 S270A): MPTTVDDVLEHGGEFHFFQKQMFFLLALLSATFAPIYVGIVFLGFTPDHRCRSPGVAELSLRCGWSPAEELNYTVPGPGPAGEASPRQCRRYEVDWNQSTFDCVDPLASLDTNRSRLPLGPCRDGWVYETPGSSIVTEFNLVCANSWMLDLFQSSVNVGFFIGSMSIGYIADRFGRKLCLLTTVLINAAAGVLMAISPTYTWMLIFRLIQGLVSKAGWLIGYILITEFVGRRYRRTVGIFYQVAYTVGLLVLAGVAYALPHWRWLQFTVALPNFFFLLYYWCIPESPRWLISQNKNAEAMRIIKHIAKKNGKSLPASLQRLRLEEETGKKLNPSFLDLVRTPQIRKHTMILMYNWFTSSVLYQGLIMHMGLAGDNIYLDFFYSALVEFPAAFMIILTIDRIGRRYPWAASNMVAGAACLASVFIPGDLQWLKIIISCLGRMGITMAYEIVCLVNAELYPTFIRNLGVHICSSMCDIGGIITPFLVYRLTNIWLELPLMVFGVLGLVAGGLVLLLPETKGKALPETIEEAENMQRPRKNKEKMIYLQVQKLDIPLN
Experimental: as §1, §2
(§6) Intracellularly accumulated test substances were quantified by HPLC-MS/MS analysis using a Shimadzu Nexera HPLC system with a SIL-30AC autosampler, a CTO-20AC column oven, a LC-30AD pump, and a CBM-20A controller (Shimadzu, Kyoto, Japan). Stereoselective chromatography was carried out on a [sequence] CBH HPLC column (100 × 3 mm inner dimension with 5 μM particle size; Sigma-Aldrich, Darmstadt, Germany) with a corresponding 10 × 3 mm guard column. Reversed phased chromatography was carried out using an ammonium acetate (NH4Ac) buffered aqueous mobile phase with isopropyl alcohol (IPA) as organic solvent. […] The order of elution of the enantiomers was obtained from available reference literature [43] or by applying enantiopure reference compounds to the chiral HPLC. […] However, in every other case where the order of elution was available, the (R)-enantiomer eluted first. Given the structural similarity of the investigated substances and the fact that separation was performed on the same column with almost identical mobile phases, we assume that this order of elution for our compound set is always the (R)- before the (S)-enantiomer.
as §4, §5
(§7) HEK293 cells stably overexpressing wild-type or mutant OCT2 were incubated with 100 μM racemic substance for two minutes.

[10] = tested on: Alpha-1 adrenoreceptor; conditions: cited from earlier work
[11] = tested on: OCT2 A270S variant; assay: in vitro; conditions: human, Stereoselectivity OCT2_A270S, 100 μM racemic substance, two minutes; uptake ratio of enantiomers, given as for (R)
[12] = target: T5, OCT2 (Homo sapiens, UniProt O15244, S270A); assay: Stereoselective uptake into OCT2 (wild-type)-overexpressing HEK293 cells; conditions: OCT2; ratio between enantiomers, given as for (R) or for 1
T5 sequence (O15244 1-555 S270A): T4 sequence (O15244 1-555 S270A)
Experimental: as §1, §2, §6, §4, §5, §7

[13] = target: T6, OCT2 (wild-type) (Homo sapiens, UniProt O15244); assay: as above; conditions: human, Stereoselectivity OCT2_WT, 100 μM racemic substance, two minutes; uptake ratio of enantiomers, given as for (R)
T6 sequence (O15244 1-555 S270A): T4 sequence (O15244 1-555 S270A)
Experimental: as §1, §2, §6, §4, §5, §7

[14] = substrate: CNC[C@@H](O)c1ccc(O)cc1; assay: cells, lysate or membranes; conditions: other: HEK293 cells overexpressing human DAT; racemic substrate, two minutes; net uptake minus empty vector control; 37.0 °C;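 note: intracellular accumulation measured by chiral HPLC-MS/MS in stably transfected HEK293 cells, normalized to total protein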
Experimental: as §1, §2, §3, §4, §5

[15] = substrate: NCC(O)c1cccc(O)c1; assay: cells, lysate or membranes; conditions: other: HEK293 cells overexpressing human DAT; racemic substrate, two minutes; net uptake minus empty vector control; 37.0 °C;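 for Clint ± SEM: intracellular accumulation measured by chiral HPLC-MS/MS in stably transfected HEK293 cells, normalized to total protein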
[16] = substrate: NC[C@@H](O)c1ccc(O)cc1; assay: cells, lysate or membranes; conditions: other: HEK293 cells overexpressing human DAT; racemic substrate, two minutes; net uptake minus empty vector control; 37.0 °C;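 note: intracellular accumulation measured by chiral HPLC-MS/MS in stably transfected HEK293 cells, normalized to total protein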
Experimental: as §1, §2, §3, §4, §5

[17] = substrate: NC[C@H](O)c1ccc(O)cc1; assay: cells, lysate or membranes; conditions: other: HEK293 cells overexpressing human DAT; racemic substrate, two minutes; net uptake minus empty vector control; 37.0 °C
Experimental: as §1, §2, §3, §4, §5

[18] = substrate: [H][C@](O)(CNC)c1ccc(O)cc1; assay: cells, lysate or membranes; conditions: other: HEK293 cells overexpressing human DAT; racemic substrate, two minutes; net uptake minus empty vector control; 37.0 °C
Experimental: as §1, §2, §3, §4, §5

T1 sequence (P31645 whole entry): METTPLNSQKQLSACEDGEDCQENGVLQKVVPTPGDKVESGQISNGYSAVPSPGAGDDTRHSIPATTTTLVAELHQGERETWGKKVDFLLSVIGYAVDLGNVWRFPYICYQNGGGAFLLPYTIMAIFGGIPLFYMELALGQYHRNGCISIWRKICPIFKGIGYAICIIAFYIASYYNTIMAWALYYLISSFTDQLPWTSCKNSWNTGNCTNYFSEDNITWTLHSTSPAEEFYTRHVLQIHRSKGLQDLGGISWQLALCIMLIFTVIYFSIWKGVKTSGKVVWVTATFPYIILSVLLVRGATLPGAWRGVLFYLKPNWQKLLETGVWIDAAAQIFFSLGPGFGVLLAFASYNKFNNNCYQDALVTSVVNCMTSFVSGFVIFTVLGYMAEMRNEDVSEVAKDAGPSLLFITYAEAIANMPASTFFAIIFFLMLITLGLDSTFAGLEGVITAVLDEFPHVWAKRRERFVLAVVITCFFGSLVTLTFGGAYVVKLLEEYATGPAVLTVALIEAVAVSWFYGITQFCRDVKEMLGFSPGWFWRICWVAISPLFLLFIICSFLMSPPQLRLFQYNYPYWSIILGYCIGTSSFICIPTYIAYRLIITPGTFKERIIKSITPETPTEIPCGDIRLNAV

Molecule: CNC[C@@H](O)c1cccc(O)c1 [(S)-Phenylephrine]
- Clint ± SEM [1]: 11.6
- selectivity ratio [2]: 2.82
- selectivity ratio at 2 min, 100 μM [3]: 1.13
- Vmax ± SEM ([4]; HEK293 cells overexpressing human NET, racemic substrate, two minutes, net uptake): 220 pmol × mg Protein^−1 × min^−1
- Clint ± SEM ([4]; NET, quotient of vmax over Km): 52.3 mL × g Protein^−1 × min^−1
- Stereoselectivity Vmax ([4]; NET, ratio between enantiomers, given as for (R) or for 1): 1.79 fold
- selectivity ratio at 2 min ([4]; human): 1.43
- Km ([4]; read-out: Km ± SEM, HEK293 cells overexpressing human NET, racemic substrate, two minutes, net uptake minus empty vector control): 4.16 µM
- Clint ± SEM ([5]; DAT, quotient of vmax over Km): 11.6 mL × g Protein^−1 × min^−1
- Stereoselectivity Vmax ([5]; DAT, ratio between enantiomers, given as for (R) or for 1): 1.56 fold
- Stereoselectivity Km ([5]; DAT, ratio between enantiomers, given as for (R) or for 1 (first-eluting)): 1.06 fold
- Vmax ± SEM ([5]; HEK293 cells overexpressing human DAT, racemic substrate, two minutes, net uptake): 392 pmol × mg Protein^−1 × min^−1
- selectivity ratio at 2 min ([5]; human): 1.48
- Km ([5]; read-out: Km ± SEM, HEK293 cells overexpressing human DAT, racemic substrate, two minutes, net uptake minus empty vector control): 33.7 µM
- Stereoselectivity Km [6]: 1.89 fold
- Stereoselectivity Vmax [6]: 1.49 fold
- Vmax ± SEM [6]: 529
- Km ([6]; read-out: Km ± SEM, HEK293 cells overexpressing human SERT, racemic substrate, two minutes, net uptake minus empty vector control): 173 µM
- Clint ± SEM ([7]; OCT1, quotient of vmax over Km): 8.85 mL × g Protein^−1 × min^−1
- selectivity ratio at 2 min ([7]; Stereoselectivity ClInt): 1.11
- selectivity ratio at 2 min ([7]; Stereoselectivity Km, OCT1, ratio between enantiomers, given as for (S) or for 2 (second-eluting)): 1.02
- selectivity ratio at 2 min ([7]; Stereoselectivity Vmax, OCT1, ratio between enantiomers, given as for (R) or for 1): 1.08
- Clint ± SEM ([8]; OCT3, quotient of vmax over Km): 4.23 mL × g Protein^−1 × min^−1
- Stereoselectivity Vmax ([8]; OCT3, ratio between enantiomers, given as for (R) or for 1): 3.33 fold
- Stereoselectivity Km ([8]; OCT3, ratio between enantiomers, given as for (R) or for 1 (first-eluting)): 1.19 fold
- selectivity ratio at 2 min ([8]; human): 2.79
- Clint ± SEM ([9]; quotient of vmax over Km): 27.3 mL × g Protein^−1 × min^−1
- selectivity ratio at 2 min ([9]; Stereoselectivity ClInt, given as for (S) or for 2): 1.02
- selectivity ratio at 2 min ([9]; Stereoselectivity Km, given as for (R) or for 1 (first-eluting)): 1.89
- selectivity ratio at 2 min ([9]; Stereoselectivity Vmax, given as for (R) or for 1): 2.04

Molecule: NC[C@H](O)c1ccc(O)c(O)c1 [Norepinephrine]
- Enantiomeric Activity Ratio (R/S) in Receptor Binding Alpha-1 [10]: 33
- selectivity ratio at 2 min, 100 μM [11]: 2.06
- Stereoselectivity Vmax [12]: approximately two-fold
- selectivity ratio at 2 min, 100 μM [13]: 2.05

Molecule: CNCC(O)c1ccc(O)cc1 (centres unmarked) [Synephrine]
- Enantiomeric Activity Ratio (R/S) in Receptor Binding Alpha-1 [10]: 75
- selectivity ratio at 2 min, 100 μM [11]: 1
- selectivity ratio at 2 min, 100 μM [13]: 1.17

B1: DAT (Homo sapiens) (protein)
chain: MSKSKCSVGLMSSVVAPAKEPNAVGPKEVELILVKEQNGVQLTSSTLTNPRQSPVEAQDRETWGKKIDFLLSVIGFAVDLANVWRFPYLCYKNGGGAFLVPYLLFMVIAGMPLFYMELALGQFNREGAAGVWKICPILKGVGFTVILISLYVGFFYNVIIAWALHYLFSSFTTELPWIHCNNSWNSPNCSDAHPGDSSGDSSGLNDTFGTTPAAEYFERGVLHLHQSHGIDDLGPPRWQLTACLVLVIVLLYFSLWKGVKTSGKVVWITATMPYVVLTALLLRGVTLPGAIDGIRAYLSVDFYRLCEASVWIDAATQVCFSLGVGFGVLIAFSSYNKFTNNCYRDAIVTTSINSLTSFSSGFVVFSFLGYMAQKHSVPIGDVAKDGPGLIFIIYPEAIATLPLSSAWAVVFFIMLLTLGIDSAMGGMESVITGLIDEFQLLHRHRELFTLFIVLATFLLSLFCVTNGGIYVFTLLDHFAAGTSILFGVLIEAIGVAWFYGVGQFSDDIQQMTGQRPSLYWRLCWKLVSPCFLLFVVVVSIVTFRPPHYGAYIFPDWANALGWVIATSSMAMVPIYAAYKFCSLPGSFREKLAYAIAPEKDRELVDRGEVRQFTLRHWLKV
- Km [14]: 44.7 µM
- Vmax [14]: 463 pmol × mg Protein^−1 × min^−1
- Km [15]: 15.6 µM and 18.6 µM
- Vmax [15]: 2003 pmol × mg Protein^−1 × min^−1 and 3103 pmol × mg Protein^−1 × min^−1
- Km [16]: 19.6 µM
- Vmax [16]: 1959 pmol × mg Protein^−1 × min^−1
- Km [17]: 20.5 µM
- Vmax [17]: 2054 pmol × mg Protein^−1 × min^−1
- Km [18]: 36.8 µM
- Vmax [18]: 849 pmol × mg Protein^−1 × min^−1

From paper PMC9599461, “Stereoselectivity in the Membrane Transport of Phenylethylamine Derivatives by Human Monoamine Transporters and Organic Cation Transporters 1, 2, and 3” (Biomolecules, 2022)
